Numbered stars: 1 amine (or outer) side, 2 acyl side, 3 side chain; on linkers, the order of the positions; unused ones are H or OH. Bridge positions count the residues as written; N and C are the ends. Square brackets hold non-standard residues; d marks the D form. Peptide text beside a SMILES is read from it. I, II: the chains in the order shown. Diglycolyl = O=C(COCC(=O)[*:2])[*:1]; NMeR = CN[C@@H](CCCNC(=N)N)C(=O)O; Tic = O=C(O)[C@@H]1Cc2ccccc2CN1; Pen = CC(C)(S)[C@H](N)C(=O)O
target: α4β7 (Homo sapiens, UniProt P13612+P26010); assay: α4β7-MAdCAM Cell Adhesion Assay (RPMI 8866 human cells); type: cell-based; set-up: host or cells: RPMI 8866 human B lymphoblastoid cells; settings: Table 3-B, Potency (α4β7); range classes; read-out: α4β7 cell (Hu) IC50
Method: RPMI 8866 human cells (Sigma #95041316) were cultured in RPMI 1640 HEPES medium (Invitrogen #22400-089) supplemented with 10% serum (Fetal Bovine Serum, Invitrogen #16140-071), 1 mM sodium pyruvate (Invitrogen #11360-070), 2 mM L-glutamine (Invitrogen #25030-081) and Penicillin-Streptomycin (Invitrogen #15140-122) at 100 units of penicillin and 100 μg of streptomycin per ml. The cells were washed two times in DMEM medium (ATCC #30-2002) supplemented with 0.1% BSA, 10 mM HEPES pH 7 and 1 mM MnCl2. The cells were re-suspended in supplemented DMEM medium at a density of 4×10^6 cells/ml.
A Nunc MaxiSorp plate was coated with rh MAdCAM-1/Fc Chimera (R&D #6065-MC) at 200 ng per well in 50 ul per well in 1×PBS and incubated at 4° C. overnight. The solution was then removed by shaking, blocked with 250 ul per well PBS containing 1% BSA, and incubated at 37° C. for 1 hr. The solution was removed by shaking. Peptides were diluted by serial dilution in a final volume of 50 ul per well (2× concentration). To each well, 50 ul of cells (200,000 cells) were added and the plate was incubated at 37° C., 5% CO2 for 30-45 min to allow cell adhesion. The wells were washed manually three times (100 ul per wash) with supplemented DMEM. After the final wash, 100 ul/well of supplemented DMEM and 10 ul/well of MTT reagent (ATTC cat#30-1010K) were added. The plate was incubated at 37° C., 5% CO2 for 2-3 hrs until a purple precipitate was visible. 100 ul of Detergent Reagent (ATTC cat#30-1010K) was added to each well. The plate was covered from the light, wrapped in Parafilm to prevent evaporation, and left overnight at room temperature in the dark. The plate was shaken for 5 min and the absorbance at 570 nm was measured. To calculate the dose response, the absorbance value of control wells not containing cells was subtracted from each test well.

Chain of α4β7 (P13612 34-1032): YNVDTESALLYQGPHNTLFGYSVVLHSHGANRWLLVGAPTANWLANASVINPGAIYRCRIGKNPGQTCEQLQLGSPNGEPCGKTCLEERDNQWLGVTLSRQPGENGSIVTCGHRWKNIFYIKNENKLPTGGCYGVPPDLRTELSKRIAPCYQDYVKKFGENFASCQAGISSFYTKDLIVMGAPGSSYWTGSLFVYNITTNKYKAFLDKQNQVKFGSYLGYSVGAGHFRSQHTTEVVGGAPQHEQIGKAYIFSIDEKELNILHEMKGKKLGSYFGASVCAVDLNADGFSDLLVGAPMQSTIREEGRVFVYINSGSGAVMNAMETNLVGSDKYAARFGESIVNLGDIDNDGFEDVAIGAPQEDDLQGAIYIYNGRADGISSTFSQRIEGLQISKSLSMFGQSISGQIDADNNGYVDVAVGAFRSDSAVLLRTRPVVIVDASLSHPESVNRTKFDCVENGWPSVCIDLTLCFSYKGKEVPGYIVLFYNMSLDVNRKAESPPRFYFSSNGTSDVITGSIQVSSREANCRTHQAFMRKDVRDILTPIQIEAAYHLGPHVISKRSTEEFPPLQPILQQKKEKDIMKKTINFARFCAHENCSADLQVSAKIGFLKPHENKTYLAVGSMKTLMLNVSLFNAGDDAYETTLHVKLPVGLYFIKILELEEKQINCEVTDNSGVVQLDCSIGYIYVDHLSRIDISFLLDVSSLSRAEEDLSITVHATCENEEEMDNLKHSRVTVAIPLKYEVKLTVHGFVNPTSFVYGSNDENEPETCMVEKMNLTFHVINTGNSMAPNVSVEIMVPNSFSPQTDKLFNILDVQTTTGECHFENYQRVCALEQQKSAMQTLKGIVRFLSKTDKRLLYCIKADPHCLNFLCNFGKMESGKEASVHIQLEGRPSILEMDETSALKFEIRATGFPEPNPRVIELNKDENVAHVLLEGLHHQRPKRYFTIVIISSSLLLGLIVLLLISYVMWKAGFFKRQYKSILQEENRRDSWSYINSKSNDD
Chain of α4β7 (P26010 20-798): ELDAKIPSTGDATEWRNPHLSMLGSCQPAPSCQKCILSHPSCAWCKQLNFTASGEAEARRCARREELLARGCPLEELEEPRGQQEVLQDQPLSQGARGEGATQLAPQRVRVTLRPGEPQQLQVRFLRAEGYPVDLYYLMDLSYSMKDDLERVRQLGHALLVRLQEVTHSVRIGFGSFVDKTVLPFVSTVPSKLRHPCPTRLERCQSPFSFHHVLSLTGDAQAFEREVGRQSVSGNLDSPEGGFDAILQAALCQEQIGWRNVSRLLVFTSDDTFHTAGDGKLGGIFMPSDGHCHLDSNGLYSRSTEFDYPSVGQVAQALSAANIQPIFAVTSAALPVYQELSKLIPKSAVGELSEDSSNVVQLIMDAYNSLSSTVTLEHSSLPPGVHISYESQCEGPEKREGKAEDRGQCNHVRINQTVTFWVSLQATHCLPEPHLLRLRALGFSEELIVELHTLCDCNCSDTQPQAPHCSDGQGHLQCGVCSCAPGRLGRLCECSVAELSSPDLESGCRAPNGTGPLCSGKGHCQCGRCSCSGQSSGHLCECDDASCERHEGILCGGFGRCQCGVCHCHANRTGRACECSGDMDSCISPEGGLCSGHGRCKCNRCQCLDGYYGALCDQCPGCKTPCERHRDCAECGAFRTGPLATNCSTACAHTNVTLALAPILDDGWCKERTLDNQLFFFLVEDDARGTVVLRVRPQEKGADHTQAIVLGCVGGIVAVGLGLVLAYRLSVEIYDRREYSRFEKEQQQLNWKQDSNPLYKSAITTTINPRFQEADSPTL

Structure (SMILES)	IC50 [nM]
CC(=O)N[C@@H]1C(=O)N(C)[C@@H](CCCNC(=N)N)C(=O)N[C@@H](CO)C(=O)N[C@@H](CC(=O)O)C(=O)N[C@@H]([C@@H](C)O)C(=O)N[C@@H](CC(C)C)C(=O)N[C@H](C(=O)N[C@@H](Cc2c[nH]c3ccccc23)C(=O)N[C@H](Cc2ccc(O)cc2)C(=O)N[C@H](CCCCNC(=O)COCC(=O)NCCCC[C@@H](NC(=O)[C@@H](Cc2ccc(O)cc2)NC(=O)[C@H](Cc2c[nH]c3ccccc23)NC(=O)[C@H]2NC(=O)[C@H](CC(C)C)NC(=O)[C@H]([C@@H](C)O)NC(=O)[C@H](CC(=O)O)NC(=O)[C@H](CO)NC(=O)[C@H](CCCNC(=N)N)N(C)C(=O)[C@@H](NC(C)=O)C(C)(C)SSC2(C)C)C(N)=O)C(N)=O)C(C)(C)SSC1(C)C [compound 92] (I: Ac-[Pen][NMeR]SDTL[Pen]W[dY][dK]-NH2 / II: Ac-[Pen][NMeR]SDTL[Pen]W[dY][dK]-NH2; disulfide I:1-I:7, II:1-II:7; linker I:10-II:10 via Diglycolyl)	50 to 100
CC(=O)N[C@@H]1C(=O)N(C)[C@@H](CCCNC(=N)N)C(=O)N[C@@H](CO)C(=O)N[C@@H](CC(=O)O)C(=O)N[C@@H]([C@@H](C)O)C(=O)N[C@@H](CC(C)C)C(=O)N[C@H](C(=O)N2Cc3ccccc3C[C@H]2C(=O)N[C@H](CCC(=O)O)C(=O)N[C@H](CCCCNC(=O)COCC(=O)NCCCC[C@@H](NC(=O)[C@@H](CCC(=O)O)NC(=O)[C@@H]2Cc3ccccc3CN2C(=O)[C@@H]2CSSC(C)(C)[C@H](NC(C)=O)C(=O)N(C)[C@@H](CCCNC(=N)N)C(=O)N[C@@H](CO)C(=O)N[C@@H](CC(=O)O)C(=O)N[C@@H]([C@@H](C)O)C(=O)N[C@@H](CC(C)C)C(=O)N2)C(N)=O)C(N)=O)CSSC1(C)C [compound 93] (I: Ac-[Pen][NMeR]SDTLC[Tic][dE][dK]-NH2 / II: Ac-[Pen][NMeR]SDTLC[Tic][dE][dK]-NH2; disulfide I:1-I:7, II:1-II:7; linker I:10-II:10 via Diglycolyl)	500 to 1000
CC(=O)N[C@@H]1C(=O)N(C)[C@@H](CCCNC(=N)N)C(=O)N[C@@H](CO)C(=O)N[C@@H](CC(=O)O)C(=O)N[C@@H]([C@@H](C)O)C(=O)N[C@@H](CC(C)C)C(=O)N[C@H](C(=O)N[C@@H](Cc2c[nH]c3ccccc23)C(=O)N2CCC[C@H]2C(=O)N[C@H](CCCCNC(=O)COCC(=O)NCCCC[C@@H](NC(=O)[C@@H]2CCCN2C(=O)[C@H](Cc2c[nH]c3ccccc23)NC(=O)[C@H]2NC(=O)[C@H](CC(C)C)NC(=O)[C@H]([C@@H](C)O)NC(=O)[C@H](CC(=O)O)NC(=O)[C@H](CO)NC(=O)[C@H](CCCNC(=N)N)N(C)C(=O)[C@@H](NC(C)=O)C(C)(C)SSC2(C)C)C(N)=O)C(N)=O)C(C)(C)SSC1(C)C [compound 94] (I: Ac-[Pen][NMeR]SDTL[Pen]WP[dK]-NH2 / II: Ac-[Pen][NMeR]SDTL[Pen]WP[dK]-NH2; disulfide I:1-I:7, II:1-II:7; linker I:10-II:10 via Diglycolyl)	100 to 500
CC(=O)N[C@@H]1C(=O)N(C)[C@@H](CCCNC(=N)N)C(=O)N[C@@H](CO)C(=O)N[C@@H](CC(=O)O)C(=O)N[C@@H]([C@@H](C)O)C(=O)N[C@@H](CC(C)C)C(=O)N[C@H](C(=O)N[C@@H](Cc2c[nH]c3ccccc23)C(=O)N2CCC[C@H]2C(=O)N[C@@H](CCCCNC(=O)COCC(=O)NCCCC[C@H](NC(=O)[C@@H]2CCCN2C(=O)[C@H](Cc2c[nH]c3ccccc23)NC(=O)[C@H]2NC(=O)[C@H](CC(C)C)NC(=O)[C@H]([C@@H](C)O)NC(=O)[C@H](CC(=O)O)NC(=O)[C@H](CO)NC(=O)[C@H](CCCNC(=N)N)N(C)C(=O)[C@@H](NC(C)=O)C(C)(C)SSC2(C)C)C(N)=O)C(N)=O)C(C)(C)SSC1(C)C [compound 95] (I: Ac-[Pen][NMeR]SDTL[Pen]WPK-NH2 / II: Ac-[Pen][NMeR]SDTL[Pen]WPK-NH2; disulfide I:1-I:7, II:1-II:7; linker I:10-II:10 via Diglycolyl)	100 to 500

Reference: patent US9809623B2, “α4β7 peptide monomer and dimer antagonists” (Protagonist Therapeutics, Inc., priority 2014, dated 2017)
